Source: publication PMC10975012, “The Active Glucuronide Metabolite of the Brain Protectant IMM-H004 with Poor Blood–Brain Barrier Permeability Demonstrates a High Partition in the Rat Brain via Multiple Mechanisms” (Pharmaceutics, 2024)

Molecular target: T1, OATP1B1 (Homo sapiens, UniProt Q9Y6L6)
T1 construct: expressed in transfected cells; host or cells: MDCKII
T1 sequence (Q9Y6L6 1-691): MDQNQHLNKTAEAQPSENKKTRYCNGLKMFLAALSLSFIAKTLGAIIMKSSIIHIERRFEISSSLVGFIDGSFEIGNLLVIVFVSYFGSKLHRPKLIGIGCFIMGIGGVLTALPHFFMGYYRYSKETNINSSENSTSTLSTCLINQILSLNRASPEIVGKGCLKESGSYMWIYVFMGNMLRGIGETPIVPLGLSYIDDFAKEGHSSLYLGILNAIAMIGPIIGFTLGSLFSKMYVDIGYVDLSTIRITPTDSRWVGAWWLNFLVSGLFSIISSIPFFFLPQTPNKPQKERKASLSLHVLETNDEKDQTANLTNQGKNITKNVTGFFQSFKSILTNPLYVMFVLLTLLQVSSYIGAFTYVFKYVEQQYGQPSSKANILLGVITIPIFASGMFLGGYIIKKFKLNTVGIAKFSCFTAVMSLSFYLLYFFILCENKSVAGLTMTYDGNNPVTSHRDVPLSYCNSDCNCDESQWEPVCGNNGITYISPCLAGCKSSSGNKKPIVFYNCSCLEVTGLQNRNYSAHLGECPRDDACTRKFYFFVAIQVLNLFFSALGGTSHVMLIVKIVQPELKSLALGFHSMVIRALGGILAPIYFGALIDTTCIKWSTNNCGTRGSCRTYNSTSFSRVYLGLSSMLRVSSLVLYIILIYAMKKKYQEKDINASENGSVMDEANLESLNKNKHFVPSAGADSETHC
Assay: Uptake in MDCKⅡ-OATP1B1 cells
Assay type: cell-based
Details: MDCKⅡ-OATP1B1, 30, 60 µmol/L, 20 or 40 min
Description: Figure S4 Uptake of IMM-H004G in MDCKⅡ-OATP1B1 and MDCKⅡ-OATP1B3 cells. (a)
RSV (rosuvastatin, 30 µmol/L) is used as a positive group in MDCKⅡ-OATP1B1 cells. (b)
E17βG (estradiol-17β-glucuronide, 5 µmol/L) is used as a positive group in
MDCKⅡ-OATP1B3 cells. (c) IMM-H004G (30, 60 µmol/L) was incubated with
MDCKⅡ-OATP1B1 and MDCKⅡ-OATP1B3 cells for 20 or 40 min. The OATP
pan-inhibitor CsA (cyclosporin A) is 10 µmol/L. n=3 for positive substrates, and n=2 for
IMM-H004G. ***p < 0.001, **p < 0.01, *p < 0.05 vs. control group. ns, not significant.
(1 picture or pasted object on this page, not shown here)

uptake increase in OATP1B1-overexpressing cells compared to control cells: did not exceed a tenfold increase
SMILES: COc1cc(OC2OC(C(=O)O)C(O)C(O)C2O)cc2oc(=O)c(N3CCN(C)CC3)c(C)c12 (stereo not shown) [IMM-H004G]
